Test results: PubChem BioAssay AID2060891 (Molecular Pharmacology Branch, DTP, NCI, 2025)

Tested on: K98450-129-R-PDC complex spheroid growth, percent test/control
Assay: Anticancer human tumor K98450-129-R-PDC patient-derived colon adenocarcinoma cell line growth inhibition [RAS]
Details: for IC50: curve of first compound; for viability, T/C: stronger effect = lower value
How it was run: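 Tumour cells grown as complex spheroids with HUVEC endothelial cells and mesenchymal stem cells, treated with RAS pathway inhibitor combinations. Each agent spans half-log steps from near clinical Cmax, or 10 microM where Cmax is unknown.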

[1] = second compound 0.000949 µM, first compound 0.00316 µM
[2] = second compound 0.000949 µM, first compound 0.01 µM
[3] = second compound 0.000949 µM, first compound 0.0316 µM
[4] = second compound 0.000949 µM, first compound 0.1 µM
[5] = second compound 0.000949 µM, first compound 0.316 µM
[6] = second compound 0.000949 µM, first compound 1 µM
[7] = second compound 0.003 µM, first compound 0.00316 µM
[8] = second compound 0.003 µM, first compound 0.01 µM
[9] = second compound 0.003 µM, first compound 0.0316 µM
[10] = second compound 0.003 µM, first compound 0.1 µM
[11] = second compound 0.003 µM, first compound 0.316 µM
[12] = second compound 0.003 µM, first compound 1 µM
[13] = second compound 0.00949 µM, first compound 0.00316 µM
[14] = second compound 0.00949 µM, first compound 0.01 µM
[15] = second compound 0.00949 µM, first compound 0.0316 µM
[16] = second compound 0.00949 µM, first compound 0.1 µM
[17] = second compound 0.00949 µM, first compound 0.316 µM
[18] = second compound 0.00949 µM, first compound 1 µM
[19] = second compound 0.03 µM, first compound 0.00316 µM
[20] = second compound 0.03 µM, first compound 0.01 µM
[21] = second compound 0.03 µM, first compound 0.0316 µM
[22] = second compound 0.03 µM, first compound 0.1 µM
[23] = second compound 0.03 µM, first compound 0.316 µM
[24] = second compound 0.03 µM, first compound 1 µM
[25] = second compound 0.0949 µM, first compound 0.00316 µM
[26] = second compound 0.0949 µM, first compound 0.01 µM
[27] = second compound 0.0949 µM, first compound 0.0316 µM
[28] = second compound 0.0949 µM, first compound 0.1 µM
[29] = second compound 0.0949 µM, first compound 0.316 µM
[30] = second compound 0.0949 µM, first compound 1 µM
[31] = second compound 0.3 µM, first compound 0.00316 µM
[32] = second compound 0.3 µM, first compound 0.01 µM
[33] = second compound 0.3 µM, first compound 0.0316 µM
[34] = second compound 0.3 µM, first compound 0.1 µM
[35] = second compound 0.3 µM, first compound 0.316 µM
[36] = second compound 0.3 µM, first compound 1 µM
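Also: spheroids exposed to agents for seven days before the viability readout.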
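For viability, T/C in this document: luminescence used as a proxy for viable cell amount.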

Nc1ccn(C2OC(CO)C(O)C2(F)F)c(=O)n1 (centres undefined) + CCn1c(-c2cccnc2C(C)OC)c2c3cc(ccc31)N1CCOC(CC(NC(=O)C(C(C)C)N(C)C(=O)C3(F)CCN(C(=O)C#CC(C)(C)N(C)C)CC3)C(=O)N3CCCC(N3)C(=O)OCC(C)(C)C2)C1
IC50 (second compound 0.000949 µM): 18.4 nM | IC50 (second compound 0.003 µM): 9.33 nM | IC50 (second compound 0.00949 µM): < 3.16 nM | IC50 (second compound 0.03 µM): < 3.16 nM | IC50 (second compound 0.0949 µM): < 3.16 nM | IC50 (second compound 0.3 µM): < 3.16 nM | viability, T/C [1]: 73.8% | viability, T/C [2]: 43% | viability, T/C [3]: 51.7% | viability, T/C [4]: 39.8% | viability, T/C [5]: 32.4% | viability, T/C [6]: 25.3% | viability, T/C [7]: 65.6% | viability, T/C [8]: 43.6% | viability, T/C [9]: 42.4% | viability, T/C [10]: 26.9% | viability, T/C [11]: 24.5% | viability, T/C [12]: 17% | viability, T/C [13]: 49.1% | viability, T/C [14]: 38.4% | viability, T/C [15]: 29.8% | viability, T/C [16]: 21.9% | viability, T/C [17]: 19.9% | viability, T/C [18]: 18.1% | viability, T/C [19]: 39% | viability, T/C [20]: 34.8% | viability, T/C [21]: 26.4% | viability, T/C [22]: 20.7% | viability, T/C [23]: 20.6% | viability, T/C [24]: 17.3% | viability, T/C [25]: 32.4% | viability, T/C [26]: 37.1% | viability, T/C [27]: 25.7% | viability, T/C [28]: 21.2% | viability, T/C [29]: 20.8% | viability, T/C [30]: 16.8% | viability, T/C [31]: 33.5% | viability, T/C [32]: 32.1% | viability, T/C [33]: 26.6% | viability, T/C [34]: 19.1% | viability, T/C [35]: 19.5% | viability, T/C [36]: 15.6%

C=CC(=O)Nc1cc(Nc2nccc(-c3cn(C)c4ccccc34)n2)c(OC)cc1N(C)CCN(C)C + CCn1c(-c2cc(N3CCN(C)CC3)cnc2C(C)OC)c2c3cc(ccc31)-c1csc(n1)CC(NC(=O)C1CC1C)C(=O)N1CCCC(N1)C(=O)OCC(C)(C)C2
IC50 (second compound 0.000949 µM): 336 nM | IC50 (second compound 0.003 µM): 209 nM | IC50 (second compound 0.00949 µM): 89.7 nM | IC50 (second compound 0.03 µM): < 3.16 nM | IC50 (second compound 0.0949 µM): < 3.16 nM | IC50 (second compound 0.3 µM): < 3.16 nM | viability, T/C [1]: 91.9% | viability, T/C [2]: 89.4% | viability, T/C [3]: 94.1% | viability, T/C [4]: 73.6% | viability, T/C [5]: 52.8% | viability, T/C [6]: 22.7% | viability, T/C [7]: 93% | viability, T/C [8]: 92% | viability, T/C [9]: 72.8% | viability, T/C [10]: 66.8% | viability, T/C [11]: 41.8% | viability, T/C [12]: 13.6% | viability, T/C [13]: 74.9% | viability, T/C [14]: 65.2% | viability, T/C [15]: 65.6% | viability, T/C [16]: 49% | viability, T/C [17]: 15.2% | viability, T/C [18]: 8.83% | viability, T/C [19]: 50.5% | viability, T/C [20]: 49% | viability, T/C [21]: 48.8% | viability, T/C [22]: 18.7% | viability, T/C [23]: 10.5% | viability, T/C [24]: 7.69% | viability, T/C [25]: 21% | viability, T/C [26]: 18.5% | viability, T/C [27]: 14.1% | viability, T/C [28]: 10.6% | viability, T/C [29]: 8.27% | viability, T/C [30]: 7.06% | viability, T/C [31]: 12.9% | viability, T/C [32]: 11.8% | viability, T/C [33]: 11.4% | viability, T/C [34]: 8.91% | viability, T/C [35]: 7.33% | viability, T/C [36]: 7.02%
